Tests used:
Assay in all cases: relative viability (nuclei count vs DMSO), 5 days (fraction); higher = more cells survive
[1] = compound: CC1=CC=C(C=C1)C(=O)CN2C3=C(CCCC3)SC2=N [Pifithrin_alpha] + CCNC(=O)c1noc(-c2cc(C(C)C)c(O)cc2O)c1-c1ccc(CN2CCOCC2)cc1 [Luminespib] (partner 0.01 µM)
How it was run: (§1)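 Lung cancer cell lines were pin-tool dosed in 1536-well plates on the day after seeding, with either a lone drug or a fixed anchor-drug dose plus five library-drug doses (not always all listed) in √10 steps. Nuclei were counted on 4× images after 5 days. Relative viability is the ratio of treated-well to vehicle-well nuclei counts, with each value a median of duplicate plates.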

[2] = compound: CC1=CC=C(C=C1)C(=O)CN2C3=C(CCCC3)SC2=N [Pifithrin_alpha] + CS(=O)(=O)CCNCc1ccc(-c2ccc3ncnc(Nc4ccc(OCc5cccc(F)c5)c(Cl)c4)c3c2)o1 [Lapatinib] (partner 2 µM)
How it was run: as §1

[3] = compound: CC1=CC=C(C=C1)C(=O)CN2C3=C(CCCC3)SC2=N [Pifithrin_alpha] + NC(=O)Nc1cc(-c2cccc(F)c2)sc1C(=O)N[C@H]1CCCNC1 [AZD7762] (partner 0.2 µM)
How it was run: as §1

Bemcentinib + Pictilisib = compound: Nc1nc(Nc2ccc3c(c2)CC[C@@H](N2CCCC2)CC3)nn1-c1cc2c(nn1)-c1ccccc1CCC2 [Bemcentinib] + CS(=O)(=O)N1CCN(Cc2cc3nc(-c4cccc5[nH]ncc45)nc(N4CCOCC4)c3s2)CC1 [Pictilisib] (partner 1 µM)
How it was run: as §1

Cell Line	relative viability ([1]; first compound 1 µM)	relative viability ([1]; first compound 3.162 µM)	relative viability ([1]; first compound 10 µM)	relative viability ([1]; first compound 31.62 µM)	relative viability ([1]; first compound 100 µM)	relative viability ([2]; first compound 1 µM)	relative viability ([2]; first compound 3.162 µM)	relative viability ([2]; first compound 10 µM)	relative viability ([2]; first compound 31.62 µM)	relative viability ([2]; first compound 100 µM)	relative viability ([3]; first compound 1 µM)	relative viability ([3]; first compound 3.162 µM)	relative viability ([3]; first compound 10 µM)	relative viability ([3]; first compound 31.62 µM)	relative viability ([3]; first compound 100 µM)	relative viability (Bemcentinib + Pictilisib; first compound 0.04 µM)	relative viability (Bemcentinib + Pictilisib; first compound 0.1265 µM)	relative viability (Bemcentinib + Pictilisib; first compound 0.4 µM)	relative viability (Bemcentinib + Pictilisib; first compound 1.265 µM)	relative viability (Bemcentinib + Pictilisib; first compound 4 µM)
NCI-H2347	0.921	0.541	0.392	0.288	0.254	0.811	0.911	0.902	0.705	0.911	0.84	0.733	0.738	0.756	0.86	0.511	0.488	0.708	0.82	0.649
NCI-H358	0.462	0.478	0.26	0.247	0.324	0.507	0.447	0.486	0.425	0.429	0.582	0.489	0.496	0.427	0.413	0.331	0.347	0.336	0.372	0.359
NCI-H1944	0.694	0.633	0.588	0.42	0.504	0.755	0.67	0.517		0.598	0.514	0.574	0.563	0.529	0.468	0.356	0.342	0.371	0.357	0.343
NCI-H1792	0.323	0.666	0.284	0.219	0.271	0.68	1.24	0.83	0.508	0.878	0.656	0.508	0.453		0.494	0.3	0.281	0.238	0.337	0.288
ABC-1		0.642	0.766	0.508	0.262	1.36	1.24	0.923		1.36		0.977	0.8	0.726	0.679	0.688	0.736	0.731	0.77	0.955
PC-3 [JPC-3]	0.74	0.779	0.63	0.635	0.587	0.392	0.421	0.401	0.414	0.326		0.678		0.464	0.446	0.724	0.933	0.802	0.764	0.732
LU99A	0.304	0.302	0.244	0.206	0.281	0.852	1.21	1.12		1.18	0.359	0.459	0.341		0.352	0.362	0.356	0.329	0.346	0.357
CAL-12T	0.277	0.327	0.521		0.186	0.624	0.614	0.696	0.441	0.447	0.548	0.658	0.62	0.401	0.476	0.302	0.569	0.532	0.347	0.364
NCI-H2087	0.169	0.172	0.153		0.135	0.991	0.942	0.913	0.655	0.972	1.4	1.32	1.28	1.03	1.26	0.813	0.973	1.03	0.813	0.89
LCLC-97TM1	0.742	0.783	0.774	0.423	0.808		1.17	0.79		1.38	0.222	0.231	0.382		0.239	0.16	0.183		0.237	0.249
BEN	0.191	0.285	0.401	0.493	0.398	0.522	0.769	0.686	0.733	0.873	0.608	0.753	0.722	0.533	0.656	0.551	0.6	0.631	0.564	0.591
NCI-H727	0.44	0.238	0.491		0.263	0.884	0.903	0.695	0.555	0.565	0.478	0.57	0.571	0.51	0.48	0.221	0.358	0.413	0.41	0.456
NCI-H1915	0.972	1.25			1.08	0.923	1.15	0.883		1.13	0.682	0.694	0.647		0.656	0.893	1.04	0.975	0.962	0.943
HARA		0.899	0.792		0.481	0.675	0.625	0.759	0.589	0.478	0.3	0.329	0.219	0.23	0.209	0.407	0.423	0.338	0.392	0.371
EMC-BAC-2	1.17	1.12	0.969		1.08	0.87	0.905	0.864	0.623	0.928	1.09	1.09	0.954	0.82	1.04	0.544	0.561	0.529	0.548	0.569
HCC-44	1.06	1.21	0.671	0.543	0.622	0.932	0.965	0.791	0.641	0.763	0.91	0.977	0.985	0.869	0.888	0.698	0.618	0.599	0.625	0.651
LOU-NH91	0.322	0.261	0.308	0.315	0.296	0.576	0.604	0.633	0.492	0.493	0.625	0.755	0.683	0.589	0.604	0.498	0.526	0.556	0.524	0.483
NCI-H3122	0.0988	0.106	0.0966		0.065	1.11	1.04	1.05	0.837	1.01	1.07	1.1	0.962	0.739	1.08	0.234	0.62	0.579	0.699	0.646
NCI-H1975	0.291	0.151	0.199	0.189	0.181	0.895	0.544	0.655	0.489	0.761	0.508	0.485	0.501	0.512	0.38	0.279	0.291	0.301	0.28	0.277
NCI-H1651	0.988	1.27	0.944	0.438	0.625	0.633	0.763	0.865	0.537	0.741	0.399	0.461	0.454	0.361	0.512	0.622	0.678	0.64	0.451	0.739
NCI-H647	0.356	0.26	0.157	0.103	0.177	0.978	0.997	0.975		0.966		0.368	0.307	0.361	0.287	0.385	0.602	0.427	0.455	0.363
NCI-H2126	0.751	0.956	0.783	0.709	0.72	0.614	0.643	0.68	0.536	0.658	0.79	1.05	0.949	0.799	0.915	0.475	0.483	0.531	0.485	0.485
LC-2-ad		1.14	1.01		0.601	0.986	1.03	0.935	0.576	0.759	0.969	0.849	0.705	0.6	0.642	0.456	0.536	0.553	0.426	0.424
NCI-H23	0.231	0.218	0.206	0.205	0.187	1.26	1.13	1	0.682	0.839	0.229	0.279	0.265	0.172	0.268	0.443	0.503	0.541	0.453	0.476
HCC-15	0.175	0.284	0.315	0.209	0.322	0.636	1.05	0.734	0.666	0.845	1.28	1.27	1.03	1.1	1.3	0.747	0.767	0.822	0.738	0.781
H3255	0.744	0.843	0.965	0.642	0.964	0.13	0.208	0.267	0.244	0.192	0.716	0.95	0.801	0.683	0.637	0.463	0.488	0.448	0.465	0.557
NCI-H838	0.248	0.292	0.263	0.237	0.198	1.08	0.908	0.822	0.562	0.615	0.875	0.909	0.832	0.744	0.884	0.441	0.442	0.639	0.485	0.459
NCI-H2170	0.849	0.53	0.742	0.542	0.705	0.263	0.274	0.287	0.266	0.263	0.899	0.91	0.733	0.613	0.783	0.267	0.324	0.352	0.259	0.311
